The results in this text go back to patent US20260176320A1, “MODULATORS OF G-PROTEIN COUPLED RECEPTORS” (priority 2018, published 2026).

Holding throughout (type): cell-based
One assay has as its target T1, GIP-R (Homo sapiens, UniProt P48546).
T1 sequence (P48546 22-466): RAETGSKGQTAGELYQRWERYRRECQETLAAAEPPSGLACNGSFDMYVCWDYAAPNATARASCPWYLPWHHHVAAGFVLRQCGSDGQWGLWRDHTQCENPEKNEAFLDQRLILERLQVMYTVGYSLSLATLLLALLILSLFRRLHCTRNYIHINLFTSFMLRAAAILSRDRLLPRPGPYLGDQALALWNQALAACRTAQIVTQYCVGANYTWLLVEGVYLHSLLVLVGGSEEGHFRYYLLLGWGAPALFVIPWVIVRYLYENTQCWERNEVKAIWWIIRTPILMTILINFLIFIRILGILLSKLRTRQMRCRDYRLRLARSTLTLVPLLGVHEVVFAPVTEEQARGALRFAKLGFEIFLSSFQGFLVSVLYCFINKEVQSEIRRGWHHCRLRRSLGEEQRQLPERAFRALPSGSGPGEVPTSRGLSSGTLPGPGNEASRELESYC
Description: HitHunter cAMP assay (GIP-R). The note with it: cAMP; for Emax: read-out: (Emax) GIP-R. The essentials: (§1)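 Suspension cells (10,000/well) in HBSS with 10 mM HEPES, 625 μM IBMX, 0.2% BSA exposed to 22-point 2-fold agonist series in duplicate for 30 min at room temperature. cAMP measured by antibody immunocompetition with overnight development, luminescence read-out.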

The target in assay [1] is T2, GLP-1R (Homo sapiens, UniProt P43220). The assay can be described thus: HitHunter cAMP assay (GLP-1R). As to conditions: cAMP; for Emax: read-out: (Emax) GLP-1R. The essentials:
as §1

Assay [2] addresses T2, GLP-1R. The assay can be described thus: PathHunter β-arrestin assay. A digest of the protocol: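 Cells (5,000/well) plated overnight, then exposed to a 22-point 2-fold agonist dilution series in medium with 0.2% BSA for 90 min at 37 °C, 5% CO2. PathHunter detection reagent added; after 3 h at room temperature in the dark, luminescence read.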

SMILES strings stand for the structures. Read-outs that look alike come from different tables or passages of the source.

T2 sequence (P43220 24-463): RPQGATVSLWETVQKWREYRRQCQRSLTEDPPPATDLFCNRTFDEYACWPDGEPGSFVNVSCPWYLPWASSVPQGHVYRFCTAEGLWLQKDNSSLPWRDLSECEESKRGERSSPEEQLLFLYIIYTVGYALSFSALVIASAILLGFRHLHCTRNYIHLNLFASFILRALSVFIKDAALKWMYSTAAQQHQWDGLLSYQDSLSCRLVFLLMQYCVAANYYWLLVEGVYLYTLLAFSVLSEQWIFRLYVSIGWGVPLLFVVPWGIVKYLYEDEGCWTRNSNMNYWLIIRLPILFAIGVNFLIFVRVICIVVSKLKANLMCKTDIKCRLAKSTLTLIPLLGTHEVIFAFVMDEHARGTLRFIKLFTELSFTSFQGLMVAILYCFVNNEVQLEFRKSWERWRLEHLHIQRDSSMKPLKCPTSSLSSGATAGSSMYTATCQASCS

In the case of `CC[C@H](C)[C@H](NC(=O)[C@H](CO)NC(=O)[C@H](Cc1ccc(O)cc1)NC(=O)[C@H](CC(=O)O)NC(=O)[C@H](CO)NC(=O)[C@@H](NC(=O)[C@H](Cc1ccccc1)NC(=O)[C@@H](NC(=O)CNC(=O)[C@H](CCC(=O)O)NC(=O)CSCC(=O)NCCn1ccccc1=O)[C@@H](C)O)[C@@H](C)O)C(=O)N[C@@H](Cc1ccc(O)cc1)C(=O)N[C@@H](CC(C)C)C(=O)N[C@@H](CC(=O)O)C(=O)N[C@@H](CCCCN)C(=O)N[C@@H](CCC(N)=O)C(=O)N[C@@H](C)C(=O)N[C@@H](C)C(=O)NC(C)(C)C(=O)N[C@@H](CCC(=O)O)C(=O)N[C@@H](Cc1ccccc1)C(=O)N[C@H](C(=O)N[C@@H](CC(N)=O)C(=O)N[C@@H](Cc1c[nH]c2ccccc12)C(=O)N[C@@H](CC(C)C)C(=O)N[C@@H](CC(C)C)C(=O)N[C@@H](C)C(=O)NCC(=O)NCC(=O)N1CCC[C@H]1C(=O)N[C@@H](CO)C(=O)N[C@@H](CO)C(=O)NCC(=O)N[C@@H](C)C(=O)N1CCC[C@H]1C(=O)N1CCC[C@H]1C(=O)N1CCC[C@H]1C(=O)N[C@@H](CO)C(=O)N[C@@H](CCCCN)C(N)=O)C(C)C` [Compound 139], the Emax at GIP-R (Table 3) worked out at 79%; at GIP-R (Table 3A) it was 79%; at GLP-1R [1] (Table 3), 102%; at GLP-1R [1] (Table 3A) it was 102%. Further, the EC50 was 1 to 10 nM at GIP-R (Table 3, read-out: EC50 GIP-R/nM); 1 to 10 nM at GIP-R (Table 3A, read-out: EC50 GIP-R/nM); 0.1 to 1 nM on GLP-1R [1] (Table 3, read-out: EC50 GLP-1R/nM); 0.1 to 1 nM at GLP-1R [1] (Table 3A, read-out: EC50 GLP-1R/nM); over 1000 nM at GLP-1R [2] (PathHunter β-arrestin assay, read-out: β-arrestin activity EC50).

In the case of `CC[C@H](C)[C@H](NC(=O)[C@H](CO)NC(=O)[C@H](Cc1ccc(O)cc1)NC(=O)[C@H](CC(=O)O)NC(=O)[C@H](CO)NC(=O)[C@@H](NC(=O)[C@H](Cc1ccccc1)NC(=O)[C@@H](NC(=O)CNC(=O)[C@H](CCC(=O)O)NC(=O)C12CC(C(=O)NCCN3C(=O)CSC3=O)(C1)C2)[C@@H](C)O)[C@@H](C)O)C(=O)N[C@@H](Cc1ccc(O)cc1)C(=O)N[C@@H](CC(C)C)C(=O)N[C@@H](CC(=O)O)C(=O)N[C@@H](CCCCN)C(=O)N[C@@H](CCC(N)=O)C(=O)N[C@@H](C)C(=O)N[C@@H](C)C(=O)NC(C)(C)C(=O)N[C@@H](CCC(=O)O)C(=O)N[C@@H](Cc1ccccc1)C(=O)N[C@H](C(=O)N[C@@H](CC(N)=O)C(=O)N[C@@H](Cc1c[nH]c2ccccc12)C(=O)N[C@@H](CC(C)C)C(=O)N[C@@H](CC(C)C)C(=O)N[C@@H](C)C(=O)NCC(=O)NCC(=O)N1CCC[C@H]1C(=O)N[C@@H](CO)C(=O)N[C@@H](CO)C(=O)NCC(=O)N[C@@H](C)C(=O)N1CCC[C@H]1C(=O)N1CCC[C@H]1C(=O)N1CCC[C@H]1C(=O)N[C@@H](CO)C(=O)N[C@@H](CCCCN)C(N)=O)C(C)C` [Compound 179], the EC50 is over 1000 nM on GIP-R (EC50 GIP-R/nM, Table 3); over 1000 nM on GIP-R (read-out: EC50 GIP-R/nM, Table 3A); 0.1 to 1 nM at GLP-1R [1] (EC50 GLP-1R/nM, Table 3); 0.1 to 1 nM on GLP-1R [1] (EC50 GLP-1R/nM, Table 3A); 10 to 1000 nM on GLP-1R [2]. Besides, the Emax at 1 µM on GIP-R (read-out: (Emax) GIP-R at 1 μM, Table 3, at 1 μM) came to 2%. The Emax at GLP-1R [1] (Table 3) and at GLP-1R [1] (Table 3A) was 103% throughout.
